Assays:
bedstraw = assay: Test B pre/postemergence bedstraw; format: in vivo, Galium aparine
How it was run: (§1)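 Response is a visual 0-to-10 score relative to untreated plants, where 0 means no effect and 10 means complete control, taken twelve to sixteen days after application. Treatments went onto soil at planting and onto foliage of 1- to 4-leaf plants, using a surfactant-containing non-phytotoxic solvent.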

blackgrass = assay: Test B pre/postemergence blackgrass; format: in vivo, Alopecurus myosuroides
How it was run: as §1

surinam grass = assay: Test B pre/postemergence surinam grass; format: in vivo, Brachiaria decumbens
How it was run: as §1

cocklebur = assay: Test B pre/postemergence cocklebur; format: in vivo, Xanthium strumarium
How it was run: as §1

corn = assay: Test B pre/postemergence corn; format: in vivo, Zea mays
How it was run: as §1

crabgrass = assay: Test B pre/postemergence crabgrass; format: in vivo, Digitaria sanguinalis
How it was run: as §1

giant foxtail = assay: Test B pre/postemergence giant foxtail; format: in vivo, Setaria faberii
How it was run: as §1

morningglory = assay: Test B pre/postemergence morningglory; format: in vivo, Ipomoea hederacea
How it was run: as §1

soybean = assay: Test B pre/postemergence soybean; format: in vivo, Glycine max
How it was run: as §1

velvetleaf = assay: Test B pre/postemergence velvetleaf; format: in vivo, Abutilon theophrasti
How it was run: as §1

wheat = assay: Test B pre/postemergence wheat; format: in vivo, Triticum aestivum
How it was run: as §1

wild oat = assay: Test B pre/postemergence wild oat; format: in vivo, Avena fatua
How it was run: as §1

purple nutsedge = assay: Test B pre/postemergence purple nutsedge; format: in vivo, Cyperus rotundus; conditions: Postemergence
How it was run: as §1

rice = assay: Test B flood test rice; format: in vivo, Oryza sativa
How it was run: (§2)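 Each value is a visual injury score relative to controls, with 10 meaning complete control and 0 no effect. Evaluation took place twelve to sixteen days after the 2-leaf-stage plants were treated and kept in the greenhouse.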

smallflower flatsedge = assay: Test B flood test smallflower flatsedge; format: in vivo, Cyperus difformis
How it was run: as §2

duck salad = assay: Test B flood test duck salad; format: in vivo, Heteranthera limosa
How it was run: as §2

bamyardgrass = assay: Test B flood test barnyardgrass; format: in vivo, Echinochloa crus-galli
How it was run: as §2

[1] = Postemergence, Rate 250 g/ha, scale 0 to 10, 0 no effect, 10 complete control
[2] = Postemergence, Rate 1000 g/ha, scale 0 to 10 (0 no effect, 10 complete control)
[3] = Preemergence, Rate 125 g/ha, scale 0 to 10 (0 no effect, 10 complete control)
[4] = Preemergence, Rate 250 g/ha, scale of 0 to 10 where 0 is no effect and 10 is complete control
[5] = Preemergence, Rate 500 g/ha, scale 0 (no effect) to 10 (complete control)
[6] = Rate 125 g/ha, Postemergence, scale 0 to 10, 0 no effect, 10 complete control
[7] = Rate 500 g/ha, Postemergence, 0 to 10 scale (0 no effect, 10 complete control)
[8] = Rate 1000 g/ha, Preemergence, scale 0 to 10 (0 no effect, 10 complete control)
[9] = Rate 125 g/ha, Postemergence section (flood test species), scale 0 to 10, 0 no effect, 10 complete control
[10] = Rate 500 g/ha, Postemergence section of Table B, 0 to 10 scale (0 no effect, 10 complete control)
[11] = flood test, listed under Postemergence, Rate 250 g/ha, scale 0 to 10, 0 no effect, 10 complete control

CCN(CC)C(=O)n1oc(=O)n(-c2ccc(OC)cc2)c1=O [Compound 1]
3: Plant response rating, Velvetleaf (velvetleaf; [8])
5: Corn plant response rating (corn; [5]) | Crabgrass plant response rating (crabgrass; [1])
9: Crabgrass plant response rating (crabgrass; [2]) | Plant response rating, Crabgrass (crabgrass; [8]) | Giant foxtail plant response rating (giant foxtail; [5]) | Plant response rating, Giant foxtail (giant foxtail; [8])
2: Blackgrass plant response rating (blackgrass; [5]) | Blackgrass plant response rating (blackgrass; [7]) | Giant foxtail plant response rating (giant foxtail; [1]) | Soybean plant response rating (soybean; [2]) | Plant response rating, Wild oats (wild oat; [8])
7: B. signalgrass plant response rating (surinam grass; [1]) | B. signalgrass plant response rating (surinam grass; [7]) | Plant response rating, Corn (corn; [8]) | Plant response rating, Giant foxtail (giant foxtail; [3])
0: Bedstraw plant response rating (bedstraw; [1]) | Bedstraw plant response rating (bedstraw; [2]) | Plant response rating, Bedstraw (bedstraw; [3]) | Plant response rating, Bedstraw (bedstraw; [4]) | Bedstraw plant response rating (bedstraw; [5]) | Bedstraw plant response rating (bedstraw; [6]) | Bedstraw plant response rating (bedstraw; [7]) | Plant response rating, Bedstraw (bedstraw; [8]) | Blackgrass plant response rating (blackgrass; [1]) | Plant response rating, Blackgrass (blackgrass; [3]) | Plant response rating, Blackgrass (blackgrass; [4]) | Blackgrass plant response rating (blackgrass; [6]) | Plant response rating, B. signalgrass (surinam grass; [3]) | Plant response rating, B. signalgrass (surinam grass; [4]) | B. signalgrass plant response rating (surinam grass; [6]) | Cocklebur plant response rating (cocklebur; [1]) | Cocklebur plant response rating (cocklebur; [2]) | Plant response rating, Cocklebur (cocklebur; [3]) | Plant response rating, Cocklebur (cocklebur; [4]) | Cocklebur plant response rating (cocklebur; [5]) | Cocklebur plant response rating (cocklebur; [6]) | Cocklebur plant response rating (cocklebur; [7]) | Corn plant response rating (corn; [1]) | Corn plant response rating (corn; [2]) | Plant response rating, Corn (corn; [3]) | Plant response rating, Corn (corn; [4]) | Corn plant response rating (corn; [6]) | Corn plant response rating (corn; [7]) | Crabgrass plant response rating (crabgrass; [6]) | Giant foxtail plant response rating (giant foxtail; [6]) | Morningglory plant response rating (morningglory; [1]) | Morningglory plant response rating (morningglory; [2]) | Plant response rating, Morningglory (morningglory; [3]) | Plant response rating, Morningglory (morningglory; [4]) | Morningglory plant response rating (morningglory; [5]) | Morningglory plant response rating (morningglory; [6]) | Morningglory plant response rating (morningglory; [7]) | Plant response rating, Morningglory (morningglory; [8]) | Soybean plant response rating (soybean; [1]) | Plant response rating, Soybean (soybean; [3]) | Plant response rating, Soybean (soybean; [4]) | Soybean plant response rating (soybean; [5]) | Soybean plant response rating (soybean; [6]) | Plant response rating, Soybean (soybean; [8]) | Velvetleaf plant response rating (velvetleaf; [1]) | Velvetleaf plant response rating (velvetleaf; [2]) | Plant response rating, Velvetleaf (velvetleaf; [3]) | Plant response rating, Velvetleaf (velvetleaf; [4]) | Velvetleaf plant response rating (velvetleaf; [5]) | Velvetleaf plant response rating (velvetleaf; [6]) | Wheat plant response rating (wheat; [1]) | Wheat plant response rating (wheat; [2]) | Plant response rating, Wheat (wheat; [3]) | Plant response rating, Wheat (wheat; [4]) | Wheat plant response rating (wheat; [5]) | Wheat plant response rating (wheat; [6]) | Plant response rating, Wheat (wheat; [8]) | Wild oats plant response rating (wild oat; [1]) | Wild oats plant response rating (wild oat; [2]) | Plant response rating, Wild oats (wild oat; [3]) | Plant response rating, Wild oats (wild oat; [4]) | Wild oats plant response rating (wild oat; [5]) | Wild oats plant response rating (wild oat; [6]) | Nutsedge plant response rating (purple nutsedge; Rate 250 g/ha, scale 0 to 10, 0 no effect, 10 complete control) | Nutsedge plant response rating (purple nutsedge; Rate 1000 g/ha, scale 0 to 10 (0 no effect, 10 complete control)) | Nutsedge plant response rating (purple nutsedge; Rate 125 g/ha, scale 0 to 10, 0 no effect, 10 complete control) | Nutsedge plant response rating (purple nutsedge; Rate 500 g/ha, 0 to 10 scale (0 no effect, 10 complete control)) | Rice plant response rating (rice; [2]) | Rice plant response rating (rice; [9]) | Rice plant response rating (rice; [10]) | Rice plant response rating (rice; [11]) | S. Flatsedge plant response rating (smallflower flatsedge; [2]) | S. Flatsedge plant response rating (smallflower flatsedge; [9]) | S. Flatsedge plant response rating (smallflower flatsedge; [11]) | Ducksalad plant response rating (duck salad; [2]) | Ducksalad plant response rating (duck salad; [9]) | Ducksalad plant response rating (duck salad; [10]) | Ducksalad plant response rating (duck salad; [11]) | Barnyardgrass plant response rating (bamyardgrass; [2]) | Barnyardgrass plant response rating (bamyardgrass; [9]) | Barnyardgrass plant response rating (bamyardgrass; [10]) | Barnyardgrass plant response rating (bamyardgrass; [11])
8: Blackgrass plant response rating (blackgrass; [2]) | Plant response rating, B. signalgrass (surinam grass; [8]) | Plant response rating, Crabgrass (crabgrass; [4]) | Crabgrass plant response rating (crabgrass; [5]) | Crabgrass plant response rating (crabgrass; [7]) | Giant foxtail plant response rating (giant foxtail; [2]) | Plant response rating, Giant foxtail (giant foxtail; [4]) | Giant foxtail plant response rating (giant foxtail; [7])
6: B. signalgrass plant response rating (surinam grass; [2]) | B. signalgrass plant response rating (surinam grass; [5])
4: Plant response rating, Blackgrass (blackgrass; [8]) | Plant response rating, Crabgrass (crabgrass; [3])
